Legend:
Pseudomonus aeruginosa = test: Virulence of Pseudomonas aeruginosa (summary statement); assay type: cell-based; details: unlike HHQ and PQS
Experimental: The virulence of compounds B1, B2, C2, C3, C4, C5, C6, C8 and C11 towards P. aeruginosa was assessed using the following method:
P. aeruginosa strains were cultured as described above for 24 hr, with the addition of test compounds (10 μM). Cultures were centrifuged at 4000 rpm for 10 minutes and the cell free supernatant (5 ml) removed. Chloroform (3 ml) was added, and mixed by vortex. After centrifugation at 4000 rpm for 5 mins, the lower aqueous phase was transferred to 0.2 M HCl (2 ml). Samples were mixed by vortex and centrifuged at 4000 rpm for 5 mins to separate the phases. An aliquot of the top phase (1 ml) was removed and spectrophotmetrically analysed at OD570 nm. Phenazine production was calculated using the following formula: OD570 nm×2×17.072 and the units expressed in μg/ml. […]

[1] = tested on: A. fumigatus Af293 biofilm; test: A. fumigatus biofilm assay (crystal violet); assay type: cell-based, Aspergillus fumigatus; details: for Relative absorbance at 595 nm compared to methanol control, Mean: A. fumigatus Af293 biofilm, 100 μM, 24 hrs, crystal violet; for effectiveness against fungal biofilms formed by Aspergillus fumigatus (in words): summary statement
Experimental: A. fumigatus Af293 was routinely grown on Sabouraud dextrose agar (SDA) in 100 ml cell culture flasks at 37° C. for 3-4 days until a lawn of fungal growth was observed.
(§1) A. fumigatus Af293 was grown on SDA in 100 ml cell culture flasks at 37° C. for 3-4 days. Conidia were harvested by flooding the surface of the agar plates with 5 ml PBS (Oxoid) containing 0.025% (v/v) Tween 20 and gently moving the liquid over the surface of the fungal lawn. The conidial suspension was transferred into a 25 ml sterile container and conidia were counted using a Neubauer haemocytometer and light microscope. Conidia were adjusted to the required concentration in RPMI 1640 (Sigma) buffered to pH 7.0 with 0.165 M MOPS immediately prior to biofilm formation analysis.
(§2) To assess biofilm formation, counted A. fumigatus spores (1×10^5) in MOPS buffered RPMI 1640 were inoculated into 24- and 96-well plates and grown overnight in the presence of 100 μM HHQ, PQS and the test compounds. After 24 hrs, the media was removed and the biofilm washed twice with distilled water after which 0.1% crystal violet (CV) was added to each well and allowed to stand for 1 hr at room temperature. The crystal violet was removed and all wells washed in a water bath by inversion. Ethanol was added to each well to solubilise biofilms after which samples were read on a spectrophotometer at Abs595 nm.

mammalian cells = test: Cytotoxicity towards mammalian cells (summary statement); assay type: cell-based
Experimental: Lactate dehydrogenase (LDH) release from IB3 lung epithelial cells was assayed as a measure of cytotoxicity using an LDH colorimetric kit (Roche) according to manufacturers' instructions. Briefly, IB3-1 cells were seeded onto 96 well plates and treated with methanol (control) and test compounds (100 μM). Following 16 hr incubation at 37° C. and 5% CO2, supernatants were removed and added to catalyst reaction mixture in a fresh plate and further incubated at 37° C. and 5% CO2 for 30 mins to allow for colour development. After this period, the plate was analysed on an ELISA plate reader at OD490 nm. Cytotoxicity was expressed as a percentage of cells treated with 0.1% (v/v) Triton (100% cytotoxicity). The results are detailed in table 3:
The above experiments were repeated, testing some compounds against further cell lines (A549, DU145 and HeLa).

[2] = tested on: P. aeruginosa PAO1 pqsA-pqsA-lacZ strain; test: Phenazine extraction (phenazine production); assay type: cell-based; details: for Phenazine, Mean: PAO1 pqsA-pqsA-lacZ strain, test compounds 10 μM, 24 hr, methanol control 0.080; for Normalised Phenazine, Mean: normalized to the methanol control (=1), n>=2
Experimental: (§3) P. aeruginosa strains, PAO1 and pqsA mutant, containing the chromosomally inserted pqsA-lacZ promoter fusion on plasmid pUC18-mini-Tn7, were sub-cultured from glycerol stocks onto LB agar plates, supplemented with Carbenicillin (200 μg/ml) and X-gal (40 μg/ml), and incubated at 37° C. overnight. Single colonies were inoculated into LB broth (20 ml), supplemented with Carbenicillin (200 μg/ml), and incubated at 37° C., shaking at 180 rpm overnight. For subsequent experiments, the OD600 nm was recorded and a starting OD600 nm of 0.02 was inoculated into fresh LB broth, supplemented with Carbenicillin (200 μg/ml) and incubated at 37° C., shaking at 180 rpm.
P. aeruginosa strains were cultured as described above for 24 hr, with the addition of test compounds (10 μM). Cultures were centrifuged at 4000 rpm for 10 minutes and the cell free supernatant (5 ml) removed. Chloroform (3 ml) was added, and mixed by vortex. After centrifugation at 4000 rpm for 5 mins, the lower aqueous phase was transferred to 0.2 M HCl (2 ml). Samples were mixed by vortex and centrifuged at 4000 rpm for 5 mins to separate the phases. An aliquot of the top phase (1 ml) was removed and spectrophotmetrically analysed at OD570 nm. Phenazine production was calculated using the following formula: OD570 nm×2×17.072 and the units expressed in μg/ml.
(§4) The phenazine production levels and Miller units in the PAO1 pqsA-pqsA-lacZ strain are detailed in table 5.
(§5) The virulence of compounds B2, C13 and C15 towards P. aeruginosa was assessed using an analogous method.

[3] = tested on: C. albicans strain SC5314 biofilm; test: XTT metabolic assay of C. albicans biofilm; assay type: cell-based, Candida albicans; details: C. albicans biofilm, test compound 100 μM, 24 hr; MeOH control 0.647, untreated 0.851
Experimental: C. albicans strain SC5314 was sub-cultured from 15% (v/v) glycerol stocks at −80° C. onto Yeast Peptone Dextrose (YPD) medium [1% (w/v) yeast extract, 2% (w/v) peptone and 2% (w/v) dextrose] and incubated at 30° C. overnight.
The test compounds in desiccated form were re-suspended in Methanol to create a 10 mM stock. […]
The ability of some of the compounds detailed in example 1 to disrupt Candida albicans was tested using Confocal Scanning Laser Microscopy and an XTT Metabolic Assay. The XTT assay is a commonly used quantitative method assessing Candida biofilm mass and growth often in response to novel drug therapies.
C. albicans biofilm formation was carried out in 96 well plates by a method of the prior art. Briefly, C. albicans was inoculated into Yeast Nitrogen Base [10% (w/v)] and glucose/maltose [10% (w/v)] and incubated overnight at 30° C. Seeding densities for all subsequent experiments (N=3) were OD600=0.05. Cells were grown in Yeast Nitrogen Base supplemented with 1 M Phosphate buffer and acetyl-D-glucosamine (YNB-NP) along with appropriate volumes of test compound to provide the desired concentration. Cells were cultured in 96 well plates for 1 hr at 37° C. to facilitate yeast attachment. After this incubation, the supernatants were aspirated, the wells washed twice with YNB-NP media, and fresh media with the same concentration of test compound added to the appropriate wells. The plate was incubated for 24 hr at 37° C. The next day, the cultures were aspirated and the wells washed once with YNB-NP media.
C. albicans biofilm quantification was carried out in 96 well plates using a semi-quantitative Tetrazolium salt, 2,3-bis-(2-methoxy-4-nitro-5-sulfophenyl)-2H tetrazolium-5-carboxanilide inner salt (XTT) reduction assay (Hawser, Tunney et al, Antimicrob Agents Chemother. 2004 May; 48(5):1879-81). XTT (0.01 g) was dissolved in sterile water (20 ml) and filter sterilized. 10 μl of Menadione dissolved in Acetone was added to the XTT solution, just before use. The XTT-Menadione Solution (100 μl) was added to each well. The plate was incubated in the dark at 37° C. for up to 2 hr to allow for colour development. The OD492 nm was recorded for each well. Experiments were repeated at least three times, with at least eight technical replicates.
Experiments were first carried out using the test compound at concentration of 100 μM.

[4] = tested on: pqsA-lacZ promoter fusion; test: Promoter fusion based expression analysis (pqsA-lacZ, Miller units); assay type: cell-based, P. aeruginosa; details: for Miller Units, Mean: PAO1 pqsA-pqsA-lacZ strain, 100 μM, overnight, methanol control 12287; for Normalised Miller Units, Mean: normalized to the methanol control (=1), n>=2
Experimental: as §3
Promoter fusion analyses were performed in a 96-well format. Briefly, overnight cultures of wild-type PAO1 pqsA-lacZ (pLP0996) and mutant strain PAO1 pqsA^− pqsA-LacZ were diluted to OD600 nm=0.02 in LB. Test compounds at 100 μM final concentration were added, mixed, aliquoted into 96 well plates and incubated overnight at 37° C. with shaking. The next day, OD600 nm values were recorded in a plate reader. Aliquots of cells (0.02 ml) were permeabilised [100 mM dibasic sodium phosphate (Na2HPO4), 20 mM KCl, 2 mM MgSO4, 0.8 mg/mL CTAB (hexadecyltrimethylammonium bromide), 0.4 mg/mL sodium deoxycholate, 5.4 μL/mL beta-mercaptoethanol] and added to substrate solution [60 mM Na2HPO4, 40 mM NaH2PO4, 1 mg/mL o-nitrophenyl-β-D-Galactoside (ONPG), 2.7 μL/mL β-mercaptoethanol]. The kinetics of colour development was monitored and the reactions were stopped using 1M NaCO3. OD420 nm were recorded as above. Miller units were calculated using the following equation; 1000×[OD420 nm/(OD600 nm)×0.02 ml×reaction time (mins)].
as §4, §5

[5] = tested on: A. fumigatus CFBRC3 biofilm; test: A. fumigatus biofilm assay, clinical source CFBRC3; assay type: cell-based, Aspergillus fumigatus; details: biofilm from clinical source CFBRC3
Experimental: as §1, §2
(§6) The above experiments were carried out using biofilms grown from laboratory sources of A. fumigatus. The experiments were repeated to test some compounds against biofilms grown from three different clinical sources of A. fumigatus (CFBRC1, CFBRC2 and CFBRC3. The results are shown in table 8: […]

[6] = tested on: A. fumigatus CFBRC1 biofilm; test: A. fumigatus biofilm assay, clinical source CFBRC1; assay type: cell-based, Aspergillus fumigatus; details: biofilm from clinical source CFBRC1
Experimental: as §1, §2, §6

[7] = tested on: A. fumigatus CFBRC2 biofilm; test: A. fumigatus biofilm assay, clinical source CFBRC2; assay type: cell-based, Aspergillus fumigatus; details: biofilm from clinical source CFBRC2
Experimental: as §1, §2, §6

Row | SMILES | effect on virulence of Pseudomonus aeruginosa (in words) (Pseudomonus aeruginosa) | Relative absorbance at 595 nm compared to methanol control, Mean [1] | effectiveness against fungal biofilms formed by Aspergillus fumigatus (in words) [1] | cytotoxicity towards mammalian cells (in words) (mammalian cells) | Phenazine, Mean [2] [µg/mL] | Absorbance at 492 nm, Mean (XTT) [3] | Miller Units, Mean [4] [Miller Units] | Relative absorbance compared to MeOH (=1), Mean [5] | Relative absorbance compared to MeOH (=1), Mean [6] | Relative absorbance compared to MeOH (=1), Mean [7] | Normalised Phenazine, Mean [2] | Normalised Miller Units, Mean [4]
1 | CCCCCCCc1cc(=O)c2cc(CCCCCC)ccc2[nH]1 [Compound C7] | do not increase the virulence | 0.27 | effective | reduced cytotoxicity |  |  |  |  |  |  |  | 
2 | CCCCCCCCCc1cc(=O)c2cc(OC)ccc2[nH]1 [Compound C8] | do not increase the virulence | 0.47 | effective | reduced cytotoxicity | 0.205 | 0.457 | 11753 |  |  |  |  | 
3 | CCCCCCCc1cc(=O)c2ccc(OC)cc2[nH]1 [Compound C9] | do not increase the virulence | 0.18 | effective | reduced cytotoxicity |  |  |  | 0.439 | 0.593 | 0.484 |  | 
4 | CCCCCCCc1cc(=O)c2cc(OC)ccc2[nH]1 [Compound C11] | do not increase the virulence |  |  | reduced cytotoxicity | 0.432 | 0.242 | 12254 |  |  |  |  | 
5 | CCCCCCCc1cc(=O)c2cc(C(=O)OCC)ccc2[nH]1 [Compound C13] | do not increase the virulence | 0.38 | effective | reduced cytotoxicity |  |  |  | 0.609 | 0.507 | 0.620 | 0.747 ratio to methanol control | 0.3715
6 | CCCCCCCc1cc(=O)c2cc(F)ccc2[nH]1 [Compound C14] |  | 0.42 |  | reduced cytotoxicity |  |  |  | 0.501 | 0.550 | 0.823 |  | 
7 | CCCCCCCc1cc(=O)c2c(C)cc(C)cc2[nH]1 [Compound C15] | do not increase the virulence | 0.25 | effective | reduced cytotoxicity |  |  |  | 0.413 | 0.518 | 0.443 | 0.4984 ratio to methanol control | 0.4671

Source: US10882826B2, “Quinolinone or quinazolinone comprising antibiofilm compositions, compounds and methods and uses relating thereto” (University College Cork—National University of Ireland, priority 2015, dated 2021)
